Measurements: PMC12670317, “Targeted NAT10 Degradation by PROTAC NP1192 Suppresses Hypoxia-Adaptive Glycolysis and Reinvigorates CD8^+ Effector T‑Cell Function for Synergistic Cancer Immunotherapy” (ACS Central Science, 2025)

Key:
[1] = system: U14 cells subcutaneous xenograft; test: U14 subcutaneous xenograft model in C57BL/6J mice; type: in vivo
Protocol: U14 cells (1 × 10^7 cells per mouse, approximately 100–150 μL of cell suspension) were implanted subcutaneously into the lateral lower dorsal surface of each mouse. The tumors were allowed to grow for 7 days, and the mice were then administered one of five treatments (group 1: U14 cells + DMSO; group 2: U14 cells + Remodelin; group 3: U14 cells + anti-PD-L1 antibody; group 4: U14 cells + NP1192; group 5: U14 cells + anti-PD-L1 antibody + NP1192). Each group of mice was assigned according to the principles of randomization and the blinding method. Tumors were measured every 2 days, and tumor volume was calculated via the following equation: volume = (width)^2 × length/2. Remodelin and NP1192 were injected into the peritumoral area every 2 days at a dose of 25 mg/kg, and the in vivo antimouse PD-L1 antibody (low endotoxin) was injected every 3 days at a dose of 2.5 mg/kg.
A lentiviral vector expressing firefly luciferase was transduced into the U14 cells. After puromycin selection and cell expansion, U14 cells with stable firefly luciferase expression were generated. C57BL/6J mice were randomly divided into the following 5 groups for further experiments: group 1, U14 cells + DMSO; group 2, U14 cells + Remodelin; group 3, U14 cells + anti-PD-L1 antibody; group 4, U14 cells + NP1192; and group 5, U14 cells + anti-PD-L1 antibody + NP1192. After tumor stabilization, the luciferase substrate was injected into the mice every 2 days, and fluorescence values were obtained via a Maestro in vivo imaging system.

[2] = Acute toxicity in C57BL/6J mice; conditions: male, mouse, in vivo, ip; C57BL/6J mice, intraperitoneal, 14 days survival
Protocol: (§1) Six-weeks old C57BL/6J male mice were purchased from Guangzhou Southern Medical University Experimental Animal Technology Development Co. The mice were administered intraperitoneally NP1192 (100, 500, 1000 mg/kg). The survival of mice was monitored for 14 days, consecutively.

[3] = system: C57BL/6J mice; test: Acute toxicity in C57BL/6J mice; conditions: mouse, in vivo, 1000 mg/kg
Protocol: as §1

[4] = system: SiHa cells; test: Lactic acid, ATP and 2-NBDG uptake assays in SiHa cells; type: cell-based, human; conditions: 20 μM, 36 h
Protocol: (§2) SiHa and U14 cells (2 × 10^5 cells per well) were plated in 6-well plates and cultured in RPMI 1640 medium or DMEM supplemented with 10% FBS and 1% penicillin–streptomycin. After cell adherence, 20 μM NP1192 or DMSO was added and incubated for 36 h, and the assays were performed according to the instruction manuals for the Lactate Assay Kit (Nanjing Jiancheng, China), ATP Assay Kit (Beyotime, China), and 2-NBDG reagent (GlpBio, US). All data analyses were performed via GraphPad Prism 9, and the data are presented as the means ± SEMs.

[5] = system: U14 cells; test: Lactic acid, ATP and 2-NBDG uptake assays in U14 cells; type: cell-based, murine; conditions: U14, 20 μM, 36 h
Protocol: as §2

[6] = system: CD8+ TILs, M2 macrophages, MDSCs and Treg cells in U14 xenograft tumors; conditions: Figure 7A
Protocol: After the mice were euthanized, the tumor and peritumoral tissues were analyzed with an immunoflow kit (BioLegend, USA). The antibodies used for immunoflow cytometry included antihuman/mouse antibodies specific for CD11b-BV711, F4/80-AF647, CD206-PE, CD86-BV605, CD4-CD4-FITC IL-17-17-CY7/CY7, CD25-PE, FOXP3-AF647, CD4-BV605, CD45-PE/CY7, CD11b-BV711 and LY-6G/LY-6C-BV421 (BioLegend catalog no. 321239, RRID:AB_2860843). All data analyses were performed via GraphPad Prism 9, and the data are presented as the mean ± SEMs.

[7] = system: NP1192^Resist SiHa cells; test: IC50 and resistance index in NP1192-resistant SiHa cells (CCK-8); type: cell-based, human
Protocol: We generated Remodelin-resistant (Remodelin^Resist SiHa) and NP1192-resistant (NP1192^Resist SiHa) SiHa CCa cell lines by applying a stepwise dose escalation strategy, as previously described in the literature. To quantitatively assess resistance, we calculated the resistance index for each subline following the established methodologies. Briefly, 3000 cells per well were seeded in 96-well plates and treated with increasing concentrations of Remodelin or NP1192 (0, 10, 50, 100, and 150 μM) for 24 h. Following treatment, 10 μL of CCK-8 reagent was added to each well and incubated for an additional 2 h. Absorbance at 490 nm was measured, and the IC50 values were calculated using GraphPad Prism 9.0. The RI was defined as the ratio of the IC50 in resistant cells to that in parental cells.

[8] = system: SiHa cells; test: SiHa cell viability IC50 (CCK-8); type: cell-based, human
Protocol: NAT10^± SiHa cells and SiHa cells treated with DMSO, Remodelin or NP1192 for 36 h were seeded into the wells of a 96-well microplate at identical densities of 2000 or 3000 cells per well. After the cells adhered to the well surface, 110 μL of a 1:10 mixture of CCK-8 reagent (Meilunbio, China) and RPMI 1640 medium was added to each well. The microplate was then incubated for another 2 h in the incubator, and the mixture was replaced with an equal volume of medium. A microplate reader (BioTek, US) was used to measure the absorption at a wavelength of 450 nm.

[9] = system: SiHa cells; test: Transwell invasion assay in SiHa cells; type: cell-based, human; conditions: pretreated 20 μM 36 h, 12 h
Protocol: The Transwell chamber was assembled by coating the porous membrane insert in the top compartment with Matrigel to form a layer of extracellular matrix (ECM), and the top compartment was placed into a cell culture plate. NAT10^± SiHa cells and SiHa cells treated with DMSO, Remodelin or NP1192 for 36 h were collected and resuspended in serum-free medium at a density of 10,000 cells/200 μL of medium. Then, the cell suspension was added to the top compartment of the Transwell chamber, and the plate was placed in the incubator for 12 h. After incubation, the cells on the bottom surface of the membrane were fixed and stained. The cells were visualized under a microscope, and the number of cells that migrated through the membrane was determined via ImageJ software.

[10] = system: glioblastoma (GBM) patient-derived organoids; test: ATP-based viability assay in patient-derived organoids, GBM; type: cell-based; conditions: Homo sapiens, GBM PDOs, read-out: IC50, organoid viability
Protocol: Organoid culture was performed according to previously established protocols. Briefly, we procured patient-derived tissue samples provided and technically manipulated by Accurate International Biotechnology Co., Ltd. Subsequently, these samples were subjected to mechanical and enzymatic dissociation to disaggregate the tissue into single cells or small clusters, while preserving cellular integrity. Following this initial step, the isolated cells or tissue fragments were embedded within a 3D ECM scaffold, such as Matrigel or collagen. The ECM scaffold served as a supportive substrate, promoting cellular self-organization and mimicking native tissue architecture. Additionally, a precisely formulated cocktail of growth factors, cytokines, and signaling molecules tailored to the specific tissue of interest was meticulously formulated and added to the culture medium to facilitate organoid growth and maintenance.

With `N#Cc1ccc(-c2csc(N(CCCCCCC(=O)N3CCN(c4cccc5c4C(=O)N(C4CCC(=O)NC4=O)C5=O)CC3)N=C3CCCC3)n2)cc1` (centres unmarked) [NP1192] as the compound, how does the tumor volume ([1]; 25 mg/kg every 2 days, compared to DMSO or Remodelin) read?
Its tumor volume is “significantly reduced tumor volume”.

And the “weight loss or systemic toxicity” value ([1]; U14 xenograft mice, 25 mg/kg)?
The value was “did not cause significant weight loss or systemic toxicity”.

What about the “reduction in tumor lactate levels” value ([1]; xenograft tumors after treatment for 1 week) of the same compound?
Its value is “more than 40%”.

What about the LD50 at 14 days [2] of the same compound?
Its LD50 at 14 days is over 1000 mg/kg.

What about the “tolerability in acute toxicity test” value [3] of the same compound?
The value was “well-tolerated”.

What about the lactate levels [4] of the same compound?
Its lactate levels is “significantly decreased lactate levels”.

What about the “absorbtion rate (glucose analog 2-NBDG)” value ([4]; Figure 4K, DMSO 3.21) of the same compound?
The value was 1.94.

What about the lactate levels [5] of the same compound?
Its lactate levels is “significantly decreased lactate levels”.

And the “level of ATP production” value [5]?
Its value is “increased markedly”.

And the “absorbtion rate (glucose analog 2-NBDG)” value ([5]; Figure 4L, DMSO 9.57)?
Its value is 0.80.

What about the Treg gate ([6]; CD4+CD25+FOXP3+) of the same compound?
Its Treg gate is 0.00%.

What about the “M2 (M2 macrophages gate)” value ([6]; CD11b+F4/80+CD206+) of the same compound?
Its value is 8.10%.

What about the MDSC gate ([6]; CD11b+LY-6G+) of the same compound?
Its MDSC gate is 4.96%.

What about the “CD8+ (CD8+ TILs gate)” value ([6]; tumors after treatment) of the same compound?
Its value is 4.30%.

What about the “resistance index (RI = IC50 resistant/parental SiHa)” value ([7]; 76.2/7.814) of the same compound?
The value was 9.75.

And the IC50 ([7]; Homo sapiens, NP1192^Resist SiHa cells)?
The IC50 was 76.2 µM.

And the IC50 ([8]; Homo sapiens, parental SiHa cells, 36 h, read-out: IC50, inhibition of SiHa cell viability)?
Its IC50 is 7.81 µM.

And the “IC50 lower than that of Remodelin” value ([8]; SiHa cells)?
Its value is 26.8%.

What about the cell invasion [9] of the same compound?
The cell invasion was “substantially hindered CCa cell invasion”.

And the IC50 [10]?
Its IC50 is 13.8 µM.
